In PubChem BioAssay (NCI):
“And” between values parts separate entries of the source, which are not always exact repeats. Equal values may be shown once.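 Interpolation was linear, between the two tested concentrations surrounding the appropriate level; five concentrations were tested over 48 hours in 96-well plates. GI50 is the concentration that inhibits growth by half. TGI denotes the concentration required for complete inhibition of growth.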

Tested on: MDA-MB-468 breast
Experiment: inhibition of tumour cell growth, NCI panel, 48 h

Structure (SMILES) | GI50 | TGI
C=CCCCCCCCCC(=O)[O][Sn]([CH2]CCC)([CH2]CCC)[CH2]CCC | 135 nM | 278 nM
CCOc1cc2c(Cl)ncnc2c(OCC)c1OCC | 781 nM | 3560 nM
CC[C@]1(O)C[C@@H]2CN(CCc3c([nH]c4ccccc34)[C@@](C(=O)OC)(c3cc4c(cc3OC)N(C)[C@H]3[C@@](O)(C(=O)OC)[C@H](OC(C)=O)[C@]5(CC)C=CCN6CC[C@]43[C@@H]65)C2)C1 | < 10 nM | < 10 nM
CC1(C)OC2[C@@H](CNC(=O)NC(=O)NC(=O)CI)O[C@@H](n3cnc4c(NC(=O)Nc5ccccc5)ncnc43)[C@H]2O1 (stereo not given in full) | 6780 nM | 14800 nM
COc1cc(C2NC(=O)c3ccccc3N2)ccc1OCCCCCOc1c(OC)cc(C2=NOC(c3cc(OC)c(OC)c(OC)c3)C2)cc1OC (stereo not given) | 80.5 nM | 97300 nM
OCc1c[nH]c2ccccc12 | 25100 nM | 75000 nM
C=C1C(=O)O[C@H]2[C@H]1CC/C(Cn1cc(-c3ccc(OC)cc3)nn1)=C\CC[C@@]1(C)O[C@@H]21 | 892 nM | 2560 nM
CS(=O)(=O)Nc1cc(-c2ccc3ncc(C#N)c(NCc4cccc(F)c4)c3c2)cnc1Cl | 102 nM | 926 nM
O=C(/C(Br)=C/c1ccccc1)c1ccccc1 | 1120 nM | 2560 nM
COC(=O)[C@]12CC[C@@H](C)[C@H](C)[C@@H]1C1=CC[C@@H]3[C@@]4(C)C/C(=N\O)[C@H](O)[C@@]5(C)COC(=C45)C[C@@]3(C)[C@]1(C)CC2 | 6220 nM | 20600 nM
COc1ccc(-c2cnnc3c(-c4cccc(C(F)(F)F)c4)cnn23)cc1 | 5390 nM | > 100000 nM
CC1=CC(=Nc2ccc(N(CCCl)CCCl)cc2)C=C(C)C1=O | 191 nM | 822 nM
CC(C)(C)OC(=O)N1CCc2c(sc3ncnc(N/N=C/c4cccc5ccccc45)c23)C1 | 4210 nM | 28100 nM
O=C(N/N=C/c1ccccc1O)c1ccccc1Nc1ccnc(C(F)(F)F)c1 | 272 nM | 9140 nM
FC(F)(F)c1cccc(Nc2nccc(-c3cnn4nc(-c5ccccc5)ccc34)n2)c1 | 7420 nM | > 23500 nM
O=C1CCCCN1CCCCC#Cc1ccccc1C#Cc1ccc([N+](=O)[O-])cc1 | 4580 nM | 26100 nM
CC(=O)OC[C@]1(C)C=C2C(=O)[C@](C)(O)C3(CC3)C(C)=C2[C@H]1O | 44.7 nM | 196 nM
N#CSc1c[nH]c2cccc(/C=C/C(=O)/C=C(/C=C/c3cccc4[nH]cc(SC#N)c34)OB(F)F)c12 | 300 nM | 1190 nM
CCCn1cnc2c(SCc3ccccc3Cl)nc(N)nc21 | 13400 nM | 48400 nM
O=c1[nH]ncc(Br)c1Br | 1270 nM | 3210 nM

Structure (SMILES) | GI50 | TGI
Cc1ccc(NC(=O)c2cccc(N(C)C)c2)cc1NC(=O)c1ccc(O)cc1 | > 57200 nM | > 100000 nM
N#Cc1ccc(O)c(C2=NCC(c3cccc(Oc4ccccc4)c3)O2)c1 (stereo not given) | 841 nM | 7070 nM
CN1CCN(C(=O)OCc2nc3c(N4CCOCC4)nc(Cl)nc3n2C)CC1 | 923 nM | 2330 nM
CC[C@@H]1C(=O)N(C)c2cnc(Nc3ccc(C(=O)NC4CCN(C)CC4)cc3OC)nc2N1C1CCCC1 | 1.35 nM and < 10 nM | 16.4 nM and < 18.3 nM
C[C@@H]1OC(O)[C@@H](F)[C@H](O)[C@@H]1O (stereo not given in full) | > 100000 nM | > 100000 nM
O=C1Nc2c(C(F)(F)F)cccc2[C@]1(c1ccc(O)cc1)c1ccc(OC(F)(F)F)cc1 | 6480 nM | 21400 nM
N#Cc1c(-c2ccc(F)cc2)nc(N/N=C/c2c[nH]c3ccccc23)nc1N1CCOCC1 | 3460 nM | 22700 nM
CCN(CC)c1ccc(/C=C/c2ccc3cc(C)ccc3[n+]2CC)cc1 | 20.5 nM | 464 nM
O=C1c2cc(Cl)ccc2S(=O)(=O)c2c(NCCCNCCO)nc3ccccc3c21 | 1060 nM | 2950 nM
Oc1ccc(CN2CCC(N3CCCCC3)CC2)c2cccnc12 | 25200 nM | 73900 nM
CCN(CC)CCOc1ccc(/C(=C(\Cl)c2ccccc2)c2ccccc2)cc1 | 1360 nM and 1570 nM | 5970 nM and 3050 nM
C=C1C(=O)O[C@H]2[C@H]1CC/C(COC(=O)c1ccc3ccccc3c1)=C\CC[C@@]1(C)O[C@@H]21 | 784 nM | 2610 nM
COc1cc2c(c(O)c1Br)C(=O)c1c(O)cc(C[C@H](C)O)cc1[C@H]2[C@H]1c2cc(C[C@H](C)O)cc(O)c2C(=O)c2c1cc(OC)c(Br)c2O | 13300 nM and 16500 nM | 36000 nM and 41900 nM
Oc1ccc2ccccc2c1N=Nc1nccs1 | 1640 nM | 6160 nM
CC/C(=C(/c1ccc(O)cc1)c1ccc(OCCNC)cc1)c1ccccc1 | 1420 nM | 2960 nM
NC(=O)c1ccc(I)c(N)c1 | > 100000 nM | > 100000 nM
C=CC(=O)N1CC2(CCN(c3nc(OC4CCN(CCCOC)CC4)nc4c(OCC(F)(F)F)c(-c5c(C)ccc6[nH]ncc56)c(C5CC5)cc34)CC2)C1 | 1590 nM | 3290 nM
COc1cc(C2=NOC(c3cc(OC)c(OC)c(OC)c3)C2)ccc1OCCCCOc1cc2c(cc1OC)C(=O)N1CCC[C@H]1C=N2 (stereo not given in full) | 225 nM | 593 nM
Oc1c(CN2CCC(N3CCCCC3)CC2)cc(Cc2cc(CN3CCC(N4CCCCC4)CC3)c(O)c3ncccc23)c2cccnc12 | 1150 nM | 2880 nM
Oc1ccc(NCc2nc3ccccc3[nH]2)cc1 | 88400 nM | > 100000 nM
